Entries after “also recorded” stand apart in the source; their conditions may differ.
Experiments:
[1] = tested on: NIH/3T3 cells; test: Long-term proliferation assay for 5-FC sensitivity; type: cell-based; conditions: 10-14 days
Procedure: C. Negative Selection of Cells Containing the CD-neo (SEQ ID NO:3 Selectable Fusion Gene. To investigate the utility of the neo and CD-neo (SEQ ID NO:3 selectable fusion genes for negative selection, the colonies resulting from each transfection were pooled and expanded into cell lines for further analysis. The NIH/3T3 cells, or NIH/3T3 cells infected with the tgLS(+)neo or tgLS(+)CD-neo retroviruses were assayed for 5-FC^s using a long-term proliferation assay.
First, 1×10^4 cells were seeded into 10 cm tissue culture dishes in complete growth medium and allowed to attach for 4 hours. The medium was then supplemented with various concentrations of G-418 and/or 5-FC (Sigma), after which the cells were incubated for a further 10-14 days. The medium was replaced every 2-4 days. The cells were then fixed in situ with 100% methanol and stained with methylene blue.

[2] = tested on: cells expressing the HSV-I TK gene; conditions: cited from earlier work
[3] = tested on: murine sarcoma (K3T3); conditions: syngeneic mice; Moolten and Wells 1990; cited from earlier work
[4] = tested on: transfected NIH/3T3 cells; test: Short term cell proliferation assay for GCV sensitivity; type: cell-based
Procedure: (§1) C. Negative Selection of Cells Containing the HyTK (SEQ ID NO:1 Selectable Fusion Gene. To investigate the utility of the HyTK (SEQ ID NO:1 selectable fusion gene for negative selection, the colonies resulting from each transfection (Table 1) were pooled and expanded into cell lines for further analysis. The Hm^r NIH/3T3 cell pools and the Hm^r and HAT^r Rat-2 cell pools were tested for GCV^s in a short term cell proliferation assay as follows.
(§2) The transfected NIH/3T3 and Rat-2 cells (3×10^4 of each) were seeded into 9-cm tissue culture dishes in complete growth medium, and allowed to attach for 4 hours. The medium was then supplemented with various concentrations of GCV (Syntex, Palo Alto, Calif.), and the cells incubated for an additional 60 hours. At this time, the medium was removed, the attached cells were harvested by trypsinization and stained with trypan blue, and the viable cells were counted. Cell growth was expressed as a fraction of the cell growth observed in the absence of GCV. The results shown are the average of triplicate assays.

[5] = tested on: transfected Rat-2 cells; test: as above; type: cell-based
Procedure: as §1, §2

[6] = tested on: NIH/3T3 cells; test: Long-term cell proliferation assay for GCV sensitivity (colony formation); type: cell-based
Procedure: Uninfected NIH/3T3 cells and the infected NIH/3T3 cell pools were plated at relatively low cell density (10^4 cells/[…]) in complete growth medium and allowed to attach for 4 hours. The medium was then supplemented with hygromycin B (500 μg/ml), with or without 1 μM GCV, and the cells incubated for a period of 10 days. The medium was then removed and the cells were fixed in situ with 100% methanol and stained with methylene blue. […] Colonies of cells resistant to both Hm and GCV were obtained at a low frequency (10^−4-10^−3) from the retrovirus-infected populations (FIG. 6, plates e and g). The proviruses present in the cells that gave rise to these colonies had likely suffered point mutations, or very small deletions or rearrangements in the HSV-I TK moiety which eliminated the ability to phosphorylate GCV. Similar results were also obtained with Rat-2 cell lines infected with tgLS(+)HyTK or with tgLS(−)CMV/HyTK (data not shown).

[7] = NIH/3T3 cells infected with tgLS(+)CD-neo, 800 μg/ml G-418, 100 μg/ml 5-FC
[8] = NIH/3T3 cells infected with tgLS(+)neo, 800 μg/ml G-418, 100 μg/ml 5-FC
[9] = uninfected NIH/3T3 cells, 800 μg/ml G-418 or 100 μg/ml 5-FC

In the case of `Nc1nc(=O)[nH]cc1F` [5-FC, 5-fluorocytosine], the “Sensitivity or resistance of cells to the drug” value (“Sensitivity or resistance” for short) [1, 7] is reported as “sensitive”, the “Sensitivity or resistance” value [1, 8] is reported as “resistant” and the “Sensitivity or resistance” value [1, 9] is reported as “resistant”.
In the case of `Nc1nc(O)c2ncn(COC(CO)CO)c2n1` [GCV, ganciclovir], the “Regression of Abelson leukemia virus-induced lymphomas” value ([2]; same transgenic mice, Moolten et al. 1990) is given as “full regression”, the “Ablation of cells expressing the HSV-I TK gene” value ([2]; transgenic animals, Heyman et al. 1989) is given as “selective ablation” and the “Eradication of tumors induced by the sarcoma cells” value [3] is given as “completely eradicated”. For the same compound, the inhibition at 1 µM ([4]; Mus musculus, NIH3T3, NIH/3T3 cells transfected with tgCMV/HyTK, 1 μM GCV, 60 hours, read-out: Degree of inhibition of cell growth) was about 100%, the “Effect of GCV on cell growth” value ([4]; NIH/3T3 cells transfected with tgCMV/HyTK) was “inhibits growth” and the “Effect of GCV on cell growth” value ([4]; NIH/3T3 cells transfected with tgCMV/hygro, 0.03 μM-1.0 μM GCV) was “does not inhibit growth; also recorded: not adversely affected”. The “Sensitivity to GCV of Rat-2 cell pools transfected with tgCMV/HyTK relative to Rat-2 cells transfected with tgCMV/TK” value ([5]; Rat-2, both Hm^r and HAT^r selected pools) was “over 30 fold”, the “Effect of GCV on cell growth” value ([5]; Rat-2 cells transfected with tgCMV/HyTK (selected for Hm^r or HAT^r), lowest concentration 0.03 μM GCV) was “inhibits growth; also recorded: almost completely inhibited” and the “Effect of GCV on cell growth” value ([5]; Rat-2 cells transfected with tgCMV/TK, higher concentrations required than for tgCMV/HyTK cells) was “inhibits growth; also recorded: inhibited”. The “Effect of GCV on cell growth” value ([5]; Rat-2 cells transfected with tgCMV/hygro, 0.03 μM-1.0 μM GCV) was “did not inhibit growth; also recorded: not inhibited”, the “Growth as measured by colony formation” value ([6]; NIH/3T3 cell pools infected with tgLS(+)HyTK or tgLS(−)CMV/HyTK, 500 μg/ml hygromycin B plus 1 μM GCV, 10 days) was “almost completely inhibited” and the “Infected cells killed by GCV” value ([6]; cells infected with HyTK retroviral vectors) was over 99.9%. The “Frequency of colonies resistant to both Hm and GCV” value ([6]; retrovirus-infected NIH/3T3 populations, 500 μg/ml Hm plus 1 μM GCV) was 10^−4-10^−3 and the “Growth of uninfected cells in GCV” value ([6]; uninfected NIH/3T3, 1 μM GCV, 10 days) was “resistant”.
With `CN[C@H]1C[C@@H](N)[C@H](O)[C@@H](O[C@@H]2O[C@H](CO)[C@H](O)[C@@H]3OC4(O[C@H]23)O[C@H]([C@@H](N)CO)[C@H](O)[C@H](O)[C@H]4O)[C@@H]1O` (stereo partly drawn) [Hm, hygromycin B] the “Growth of uninfected cells in Hm” value ([6]; uninfected NIH/3T3, 500 μg/ml Hm, 10 days) was “completely killed”.
For `CN[C@@H]1[C@@H](O)[C@@H](O[C@@H]2[C@@H](O)[C@H](O[C@H]3O[C@H]([C@@H](C)O)[C@@H](O)[C@H](O)[C@H]3N)[C@@H](N)C[C@H]2N)OC[C@]1(C)O` [G-418], the “Sensitivity or resistance” value [1, 7] was “resistant”, the “Sensitivity or resistance” value [1, 8] was “resistant” and the “Sensitivity or resistance” value [1, 9] was “sensitive”.
